Experiment [1] relates to MDR E. coli ST131. Nature of the experiment: Screening of peptidomimetic-antibiotic combinations (growth / growth inhibition). The experiment is classed as cell-based, Escherichia coli. The arrangement: key to Growth in combination with RIF / Growth in combination with AZM: Growth (+); growth inhibition (–). The conditions noted are these: for Growth in combination with AZM: peptidomimetic 0.5 μM + azithromycin 1 μg/mL; for Growth in combination with RIF: peptidomimetic 0.5 μM + rifampicin 0.5 μg/mL; for Potentiation in the screening, rifampicin or azithromycin: 0.5 μM peptidomimetic. The protocol:
(§1) Minimal inhibitory concentrations (MICs) of peptidomimetics, antibiotics and their combinations were determined by broth microdilution according to the Clinical Laboratory Standards Institute performance standards (Clinical and Laboratory Standards Institute, [2013]). […] Since rifampicin and azithromycin mainly are used to treat infections with Gram-positive pathogens only CLSI clinical breakpoints were available for such bacteria. […] Potentiation of additional antibiotics by peptidomimetics was determined by using commercial 96-well plates containing varied concentrations of standard antibiotics (COMPAN1F; Trek Diagnostic Systems Inc.). The peptidomimetics were added immediately prior to inoculation with pathogen, and then MICs were determined as above. The MICs of peptidomimetic/antibiotic combinations were determined according to the method above, and the concentration ratios were selected based upon checkerboard results with 2:1 and 1:4 ratio of peptidomimetic with rifampicin or azithromycin, respectively. Minimal bactericidal concentrations (MBCs) were determined by using growth-curve assay plates. MIC plates were prepared as above, and then the plates were incubated at 37°C with continuous shaking. Growth was recorded at 10 min intervals as optical density (OD) at 600 nm during 24 h. At 24 h, for wells without growth, a sample was diluted 10-fold in sterile saline (0.9% sodium chloride) and plated onto MHA, following CLSI guidelines (Clinical and Laboratory Standards Institute, [1999]).

Experiment [2] concerns K. pneumoniae ST258. Described as above. The experiment is classed as cell-based, Klebsiella pneumoniae. The arrangement: key to Growth in combination with RIF / Growth in combination with AZM: Growth (+); growth inhibition (–). The conditions noted are these: for Growth in combination with AZM: peptidomimetic 0.5 μM + azithromycin 1 μg/mL; for Growth in combination with RIF: peptidomimetic 0.5 μM + rifampicin 0.5 μg/mL; for Potentiation in the screening, rifampicin or azithromycin: 0.5 μM peptidomimetic. The procedure:
as §1

As for R(Tbt)R(hPhe)-NH2 [Peptidomimetic 38], in experiment [1], the “Growth in combination with AZM” value is on record as “+” and the “Growth in combination with RIF” value was “+”. Moreover, in experiment [2], the “Growth in combination with AZM” value was “+” and the “Growth in combination with RIF” value is on record as “+”.

“VNW(NLys)2VL(NLys)2II(NLys)VA(NLys)-NH2 [Peptidomimetic 30]”: the “Growth in combination with AZM” value in experiment [1] and in experiment [2] was “+” each time. Besides, the “Growth in combination with RIF” value in experiment [1] and in experiment [2] was “+” throughout.

In the case of Cin-(Lys-Phe)8-NH2 [Peptidomimetic 24], in experiment [1], the “Growth in combination with AZM” value is “+” and the “Growth in combination with RIF” value is given as “+”. Moreover, in experiment [2], the “Growth in combination with AZM” value was “+” and the “Growth in combination with RIF” value was “+”.

In the case of “F5Ph-acetic acid-(5F-Phe)-(Lys-βNspe-hArg-βNspe)3-NH2 [Peptidomimetic 29]”, in experiment [1], the “Potentiation in the screening, rifampicin or azithromycin” value (shortened to “Potentiation in the screening”) is recorded as “did not exhibit any potentiation activity”; the “Growth in combination with AZM” value was “+”; the “Growth in combination with RIF” value is “+”. In experiment [2], the “Potentiation in the screening” value is listed as “did not exhibit any potentiation activity”; the “Growth in combination with AZM” value is “+”; the “Growth in combination with RIF” value is reported as “+”.

In the case of Ac-(NLys-NPhe)8-NH2 [Peptidomimetic 22], in experiment [1], the “Growth in combination with AZM” value is “–” and the “Growth in combination with RIF” value is “–”. In addition, in experiment [2], the “Growth in combination with AZM” value was “+” and the “Growth in combination with RIF” value is listed as “+”.

For “Ac-(azaLys-βNspe-Lys-βNspe)4-NH2 [Peptidomimetic 17]”, in experiment [1], the “Growth in combination with AZM” value was “+” and the “Growth in combination with RIF” value is reported as “+”. In experiment [2], the “Growth in combination with AZM” value is “+” and the “Growth in combination with RIF” value is recorded as “+”.

Turning to Ac-(hArg-βNPhe)8-NH2 [Peptidomimetic 2], the “Growth in combination with AZM” value in experiment [1] and in experiment [2] was “+” each time. Moreover, the “Growth in combination with RIF” value in experiment [1] and in experiment [2] was “+” each time.

As for Ac-(Lys-NTrp)8-NH2 [Peptidomimetic 19], in experiment [1], the “Growth in combination with AZM” value was “–” and the “Growth in combination with RIF” value is recorded as “+”. Moreover, in experiment [2], the “Growth in combination with AZM” value is recorded as “+” and the “Growth in combination with RIF” value is recorded as “+”.

Turning to “(NLys)LG(NLys)IW(NLys)I(Nlys)2LF-NH2 [Peptidomimetic 32]”, the “Growth in combination with AZM” value in experiment [1] and in experiment [2] was “+” each time. Further, the “Growth in combination with RIF” value in experiment [1] and in experiment [2] was “+” throughout.

Regarding “Pam-(Lys-βNspe-hArg-βNspe)-NH2 [Peptidomimetic 9]”, in experiment [1], the “Potentiation in the screening” value was “did not exhibit any potentiation activity”; the “Growth in combination with AZM” value is recorded as “+”; the “Growth in combination with RIF” value is listed as “+”. In experiment [2], the “Potentiation in the screening” value is on record as “did not exhibit any potentiation activity”; the “Growth in combination with AZM” value was “+”; the “Growth in combination with RIF” value is listed as “+”.

As for “Pam-(Lys-βNspe)6-NH2 [Peptidomimetic 34]”, in experiment [1], the “Growth in combination with AZM” value is given as “+” and the “Growth in combination with RIF” value is reported as “+”. Also, in experiment [2], the “Growth in combination with AZM” value is on record as “+” and the “Growth in combination with RIF” value is “+”.

In the case of Ac-(Lys-βNspe)8-NH2 [Peptidomimetic 5], in experiment [1], the “Growth in combination with AZM” value was “–” and the “Growth in combination with RIF” value is “–”. Also, in experiment [2], the “Growth in combination with AZM” value is “+” and the “Growth in combination with RIF” value was “+”.

As to “Pam-[(S)-Aoc]-(Lys-βNphe)6-NH2 [Peptidomimetic 11]”, the “Growth in combination with AZM” value in experiment [1] and in experiment [2] was “+” each time. For the same substance, the “Growth in combination with RIF” value in experiment [1] and in experiment [2] was “+” each time.

Regarding “Oct-[(S)-Aoc]-(Lys-βNphe)6-NH2 [Peptidomimetic 42]”, in experiment [1], the “Growth in combination with AZM” value is “+” and the “Growth in combination with RIF” value is reported as “+”. For the same substance, in experiment [2], the “Growth in combination with AZM” value is listed as “+” and the “Growth in combination with RIF” value is given as “+”.

As for “Lau-Dap(Lau)-(Lys-βNspe-hArg-βNspe)3-NH2 [Peptidomimetic 40]”, in experiment [1], the “Growth in combination with AZM” value is given as “+” and the “Growth in combination with RIF” value is listed as “+”. In experiment [2], the “Growth in combination with AZM” value was “+” and the “Growth in combination with RIF” value is listed as “+”.

For the substance “Pam-(Lys-βNPhe)6-NH2 [Peptidomimetic 36]”, the “Growth in combination with AZM” value in experiment [1] and in experiment [2] was “+” throughout. Besides, the “Growth in combination with RIF” value in experiment [1] and in experiment [2] was “+” in each case.

On to “Ac-(Lys-βNspe-hArg-βNspe)2-NH2 [Peptidomimetic 10]”, for which, in experiment [1] (0.5 μM peptidomimetic + 0.5 μg/mL rifampicin), the “Screening result with rifampicin” value was “potentiated rifampicin activity”. The “Growth in combination with AZM” value in experiment [1] and in experiment [2] was “+” in each case. For the same substance, the “Growth in combination with RIF” value in experiment [1] was “–”; in experiment [2], “+”.

As to Ac-(Lys-βNspe)6-NH2 [Peptidomimetic 6], in experiment [1], the “Growth in combination with AZM” value is recorded as “–” and the “Growth in combination with RIF” value is listed as “–”. Further, in experiment [2], the “Growth in combination with AZM” value is on record as “+” and the “Growth in combination with RIF” value is “+”.

In the case of Ac-(bNLys-Trp)8-NH2 [Peptidomimetic 21], in experiment [1], the “Growth in combination with AZM” value is on record as “+” and the “Growth in combination with RIF” value is “–”. Also, in experiment [2], the “Growth in combination with AZM” value is recorded as “+” and the “Growth in combination with RIF” value is “+”.

With “Pam-(Lys-βNspe-hArg-βNspe)2-NH2 [Peptidomimetic 13]”, in experiment [1], the “Potentiation in the screening” value is “did not exhibit any potentiation activity”; the “Growth in combination with AZM” value is “+”; the “Growth in combination with RIF” value was “+”. In experiment [2], the “Potentiation in the screening” value is listed as “did not exhibit any potentiation activity”; the “Growth in combination with AZM” value was “+”; the “Growth in combination with RIF” value is “+”.

As for Ac-(hArg-βNspe)7-NH2 [Peptidomimetic 4], in experiment [1], the “Growth in combination with AZM” value is “+” and the “Growth in combination with RIF” value was “+”. For the same substance, in experiment [2], the “Growth in combination with AZM” value is “+” and the “Growth in combination with RIF” value was “+”.

As for Ac-(hArg-βNPhe)5-NH2 [Peptidomimetic 3], in experiment [1], the “Growth in combination with AZM” value is reported as “+” and the “Growth in combination with RIF” value is “–”. In addition, in experiment [2], the “Growth in combination with AZM” value is given as “+” and the “Growth in combination with RIF” value is recorded as “+”.

With “G(NLys)W(NLys)2II(NLys)VA(NLys)-NH2 [Peptidomimetic 31]”, the “Growth in combination with AZM” value in experiment [1] and in experiment [2] was “+” each time. Further, the “Growth in combination with RIF” value in experiment [1] and in experiment [2] was “+” each time.

Turning to “Cin-(Lys-βNspe-hArg-βNspe)3-NH2 [Peptidomimetic 27]”, in experiment [1], the “Potentiation in the screening” value was “did not exhibit any potentiation activity”; the “Growth in combination with AZM” value is “+”; the “Growth in combination with RIF” value was “+”. In addition, in experiment [2], the “Potentiation in the screening” value is “did not exhibit any potentiation activity”; the “Growth in combination with AZM” value was “+”; the “Growth in combination with RIF” value is “+”.

For the substance “Lau-(Lys-βNPhe)6-NH2 [Peptidomimetic 37]”, the “Growth in combination with AZM” value in experiment [1] and in experiment [2] was “+” in each case. Also, the figures for the “Growth in combination with RIF” value in experiment [1] and in experiment [2] were “–” and “+”, respectively.

For the substance “Oct-(Lys-βNspe)6-NH2 [Peptidomimetic 35]”, in experiment [1], the “Growth in combination with AZM” value was “+” and the “Growth in combination with RIF” value is given as “+”. In experiment [2], the “Growth in combination with AZM” value is “+” and the “Growth in combination with RIF” value is recorded as “+”.

R(Tbt)R(NPhe) [Peptidomimetic 39]: the “Growth in combination with AZM” value in experiment [1] and in experiment [2] was “+” in each case. The “Growth in combination with RIF” value in experiment [1] and in experiment [2] was “+” each time.

Take “p-CF3-benzoyl-(Lys-Phe)8-NH2 [Peptidomimetic 23]”: the “Growth in combination with AZM” value in experiment [1] and in experiment [2] was “+” throughout. The “Growth in combination with RIF” value in experiment [1] and in experiment [2] was “+” in each case.

As to “Ac-(hArg-βNchx-Lys-βNspe)3-NH2 [Peptidomimetic 8]”, in experiment [1], the “Growth in combination with AZM” value was “+” and the “Growth in combination with RIF” value is “+”. Further, in experiment [2], the “Growth in combination with AZM” value is “+” and the “Growth in combination with RIF” value is listed as “+”.

With “Ac-(bNLys-bNPhe)8-NH2 [Peptidomimetic 18]”, the “Growth in combination with AZM” value in experiment [1] and in experiment [2] was “+” in each case. Further, the “Growth in combination with RIF” value in experiment [1] and in experiment [2] was “+” each time.

With “(NLys)W(NLys)LF(NLys)2VL(NLys)VLTTG-NH2 [Peptidomimetic 33]”, in experiment [1], the “Growth in combination with AZM” value is “+” and the “Growth in combination with RIF” value is reported as “+”. In experiment [2], the “Growth in combination with AZM” value was “+” and the “Growth in combination with RIF” value is “+”.

The values above are taken from article PMC6615261, “Repurposing Azithromycin and Rifampicin Against Gram-Negative Pathogens by Combination With Peptidomimetics” (Frontiers in Cellular and Infection Microbiology, 2019).
